Measurements as given in US20090149662A1, “PROCESSES FOR PREPARING ZAFIRLUKAST” (priority 2007, published 2009).

Experiment: Stability studies of amorphous zafirlukast under storage/stress conditions (XRD)
Assay type: physicochemical
From the text: A sample of amorphous zafirlukast prepared using the above process was subjected to different conditions to determine the stability of the mixture under stress conditions.
The sample was packed in a clear polyethylene bag, tied with a tag, placed in a black polyethylene bag along with a silica pouch, which was filled with nitrogen, then sealed in a triple laminated bag, and finally sealed and stored in an HDPE drum.

Measured: Solid-form stability (XRD spectra) after storage

4-(5-cyclopentyloxy-carbonylamino-1-methyl-indol-3-ylmethyl)-3-methoxy-N-O-tolylsulfonylbenzamide [Amorphous form]
No change in XRD spectra: Long-term storage for 3 months, packed in polyethylene bags with silica pouch under nitrogen, triple laminated bag, HDPE drum | Storage at 25 + 5 C. and 60 + 5% RH, same packing | Storage at 40 + 5 C. and 70 + 5% RH, same packing
